{"source": "ChEMBL document CHEMBL4425165", "about": "“Discovery of Pyrazolo[1,5-a]pyrimidine TTK Inhibitors: CFI-402257 is a Potent, Selective, Bioavailable Anticancer Agent” (ACS Med Chem Lett, 2016)", "key": {"OVCAR-3": {"system": "OVCAR-3", "assay": "Growth inhibition of human OVCAR3 cells measured after 5 days by sulforhodamine B assay", "type": "functional", "details": "OVCAR-3, 120 h"}, "[1]": {"assay": "Dissociation constant, pKa of the compound", "type": "physicochemical"}, "[2]": {"assay": "AUC in athymic CD-1 nude mouse at 10 mg/kg, po by LC-MS/MS analysis", "type": "ADME, organism-based", "details": "in vivo"}, "[3]": {"target": "T1, Dual specificity protein kinase TTK (Homo sapiens, UniProt P33981)", "T1 sequence (P33981 whole entry)": "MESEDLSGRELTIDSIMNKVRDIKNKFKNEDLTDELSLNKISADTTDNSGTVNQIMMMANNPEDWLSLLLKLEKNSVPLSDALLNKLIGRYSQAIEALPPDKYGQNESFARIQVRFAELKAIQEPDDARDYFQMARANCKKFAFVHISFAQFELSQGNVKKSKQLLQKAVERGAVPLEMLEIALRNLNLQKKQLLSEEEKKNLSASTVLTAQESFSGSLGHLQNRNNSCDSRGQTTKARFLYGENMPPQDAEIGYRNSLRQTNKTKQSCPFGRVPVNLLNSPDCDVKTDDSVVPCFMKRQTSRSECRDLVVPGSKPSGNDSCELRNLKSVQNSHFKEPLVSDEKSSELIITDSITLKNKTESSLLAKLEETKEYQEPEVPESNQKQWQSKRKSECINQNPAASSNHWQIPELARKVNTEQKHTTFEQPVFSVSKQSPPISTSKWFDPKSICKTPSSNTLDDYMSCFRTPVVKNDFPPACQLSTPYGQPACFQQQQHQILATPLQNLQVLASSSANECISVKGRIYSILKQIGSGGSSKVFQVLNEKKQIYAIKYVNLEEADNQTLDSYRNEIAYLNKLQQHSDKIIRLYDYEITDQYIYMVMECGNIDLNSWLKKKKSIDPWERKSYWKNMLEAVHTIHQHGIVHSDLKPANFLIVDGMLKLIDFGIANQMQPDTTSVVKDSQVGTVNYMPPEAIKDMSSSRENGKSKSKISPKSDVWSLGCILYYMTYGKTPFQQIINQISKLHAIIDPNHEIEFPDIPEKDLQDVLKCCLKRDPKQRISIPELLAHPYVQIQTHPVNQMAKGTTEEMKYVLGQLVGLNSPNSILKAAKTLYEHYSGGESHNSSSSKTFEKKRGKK"}, "[4]": {"assay": "Solubility of the compound at pH 7.4", "type": "physicochemical", "details": "buffer"}, "HCT-116": {"system": "HCT-116", "assay": "Growth inhibition of human HCT116 cells measured after 5 days by sulforhodamine B assay", "type": "functional", "details": "HCT-116, 120 h"}, "[5]": {"assay": "Cmax in athymic CD-1 nude mouse at 10 mg/kg, po by LC-MS/MS analysis", "type": "ADME, organism-based", "set-up": "dose 10 mg/kg, route oral", "details": "in vivo"}, "[6]": {"assay": "Solubility of the compound at pH 2", "type": "physicochemical", "details": "buffer"}, "MDA-MB-468": {"system": "MDA-MB-468", "assay": "Growth inhibition of human MDA-MB-468 cells measured after 5 days by sulforhodamine B assay", "type": "functional", "details": "MDA-MB-468, 120 h"}}}
{"smiles": "Cc1cc(-c2cnn3c(NCC4CCOCC4)cc(N[C@H]4CCC[C@H]4O)nc23)ccc1C(=O)NC1CC1", "values": [{"measurement": "GI50", "setting": "OVCAR-3", "value": 79, "unit": "nM"}, {"measurement": "pKa", "setting": "[1]", "value": 3.2}, {"measurement": "AUC", "setting": "[2]", "value": 1500, "unit": "ng·h/mL"}, {"measurement": "IC50", "setting": "[3]", "value": 2.7, "unit": "nM"}, {"measurement": "solubility", "setting": "[4]", "value": 23, "unit": "µg/mL"}, {"measurement": "GI50", "setting": "HCT-116", "value": 59, "unit": "nM"}, {"measurement": "Cmax", "setting": "[5]", "value": 1300, "unit": "ng/mL"}, {"measurement": "solubility", "setting": "[6]", "value": 480, "unit": "µg/mL"}, {"measurement": "GI50", "setting": "MDA-MB-468", "value": 62, "unit": "nM"}]}
{"smiles": "Cc1cc(-c2cnn3c(NC[C@H]4C[C@H](O)C4)cc(NC4CCCC4)nc23)ccc1C(=O)NC1CC1", "values": [{"measurement": "GI50", "setting": "OVCAR-3", "value": 68, "unit": "nM"}, {"measurement": "pKa", "setting": "[1]", "value": 3.7}, {"measurement": "AUC", "setting": "[2]", "value": 130, "unit": "ng·h/mL"}, {"measurement": "IC50", "setting": "[3]", "value": 2.4, "unit": "nM"}, {"measurement": "solubility", "setting": "[4]", "value": 5.4, "unit": "µg/mL"}, {"measurement": "GI50", "setting": "HCT-116", "value": 14, "unit": "nM"}, {"measurement": "Cmax", "setting": "[5]", "value": 180, "unit": "ng/mL"}, {"measurement": "solubility", "setting": "[6]", "value": 930, "unit": "µg/mL"}, {"measurement": "GI50", "setting": "MDA-MB-468", "value": 35, "unit": "nM"}]}
{"smiles": "Cc1cc(-c2cnn3c(NC[C@H]4CC[C@@H](O)CC4)cc(Oc4cccnc4)nc23)ccc1C(=O)NC1CC1", "values": [{"measurement": "GI50", "setting": "OVCAR-3", "value": 43, "unit": "nM"}, {"measurement": "pKa", "setting": "[1]", "value": 3.7}, {"measurement": "AUC", "setting": "[2]", "value": 3400, "unit": "ng·h/mL"}, {"measurement": "IC50", "setting": "[3]", "value": 1.8, "unit": "nM"}, {"measurement": "solubility", "setting": "[4]", "value": 2.1, "unit": "µg/mL"}, {"measurement": "GI50", "setting": "HCT-116", "value": 17, "unit": "nM"}, {"measurement": "Cmax", "setting": "[5]", "value": 750, "unit": "ng/mL"}, {"measurement": "solubility", "setting": "[6]", "value": 360, "unit": "µg/mL"}, {"measurement": "GI50", "setting": "MDA-MB-468", "value": 19, "unit": "nM"}]}
{"smiles": "Cc1cc(-c2cnn3c(NCC4CCOCC4)cc(NC4CCCC4)nc23)ccc1C(=O)NC1CC1", "values": [{"measurement": "GI50", "setting": "OVCAR-3", "value": 90, "unit": "nM"}, {"measurement": "pKa", "setting": "[1]", "value": 3.2}, {"measurement": "AUC", "setting": "[2]", "value": 4000, "unit": "ng·h/mL"}, {"measurement": "IC50", "setting": "[3]", "value": 3.2, "unit": "nM"}, {"measurement": "solubility", "setting": "[4]", "value": 3.1, "unit": "µg/mL"}, {"measurement": "GI50", "setting": "HCT-116", "value": 15, "unit": "nM"}, {"measurement": "Cmax", "setting": "[5]", "value": 2300, "unit": "ng/mL"}, {"measurement": "solubility", "setting": "[6]", "value": 88, "unit": "µg/mL"}, {"measurement": "GI50", "setting": "MDA-MB-468", "value": 36, "unit": "nM"}]}
{"smiles": "Cc1cc(-c2cnn3c(NCC4CCOCC4)cc(N[C@@H]4CCCC[C@H]4O)nc23)ccc1C(=O)NC1CC1", "values": [{"measurement": "GI50", "setting": "OVCAR-3", "value": 340, "unit": "nM"}, {"measurement": "pKa", "setting": "[1]", "value": 3.3}, {"measurement": "IC50", "setting": "[3]", "value": 13, "unit": "nM"}, {"measurement": "solubility", "setting": "[4]", "value": 13, "unit": "µg/mL"}, {"measurement": "GI50", "setting": "HCT-116", "value": 130, "unit": "nM"}, {"measurement": "solubility", "setting": "[6]", "value": 410, "unit": "µg/mL"}, {"measurement": "GI50", "setting": "MDA-MB-468", "value": 180, "unit": "nM"}]}
{"smiles": "Cc1cc(-c2cnn3c(NCC4CCOCC4)cc(Oc4ccccc4)nc23)ccc1C(=O)NC1CC1", "values": [{"measurement": "GI50", "setting": "OVCAR-3", "value": 22, "unit": "nM"}, {"measurement": "pKa", "setting": "[1]", "value": 3.4}, {"measurement": "AUC", "setting": "[2]", "value": 3100, "unit": "ng·h/mL"}, {"measurement": "IC50", "setting": "[3]", "value": 2.5, "unit": "nM"}, {"measurement": "solubility", "setting": "[4]", "value": 0.5, "unit": "µg/mL"}, {"measurement": "GI50", "setting": "HCT-116", "value": 3, "unit": "nM"}, {"measurement": "Cmax", "setting": "[5]", "value": 560, "unit": "ng/mL"}, {"measurement": "solubility", "setting": "[6]", "value": 12, "unit": "µg/mL"}, {"measurement": "GI50", "setting": "MDA-MB-468", "value": 13, "unit": "nM"}]}
{"smiles": "Cc1cc(-c2cnn3c(NCC4CCOCC4)nc(NC4CCCC4)nc23)ccc1C(=O)NC1CC1", "values": [{"measurement": "GI50", "setting": "OVCAR-3", "value": 480, "unit": "nM"}, {"measurement": "pKa", "setting": "[1]", "value": 2.7}, {"measurement": "AUC", "setting": "[2]", "value": 530, "unit": "ng·h/mL"}, {"measurement": "IC50", "setting": "[3]", "value": 5.8, "unit": "nM"}, {"measurement": "solubility", "setting": "[4]", "value": 3.6, "unit": "µg/mL"}, {"measurement": "GI50", "setting": "HCT-116", "value": 130, "unit": "nM"}, {"measurement": "Cmax", "setting": "[5]", "value": 430, "unit": "ng/mL"}, {"measurement": "solubility", "setting": "[6]", "value": 28, "unit": "µg/mL"}, {"measurement": "GI50", "setting": "MDA-MB-468", "value": 320, "unit": "nM"}]}
{"smiles": "CC[C@H](CO)Nc1cc(NCC2CCOCC2)n2ncc(-c3ccc(C(=O)NC4CC4)c(C)c3)c2n1", "values": [{"measurement": "GI50", "setting": "OVCAR-3", "value": 1100, "unit": "nM"}, {"measurement": "pKa", "setting": "[1]", "value": 3.5}, {"measurement": "IC50", "setting": "[3]", "value": 21, "unit": "nM"}, {"measurement": "solubility", "setting": "[4]", "value": 27, "unit": "µg/mL"}, {"measurement": "GI50", "setting": "HCT-116", "value": 210, "unit": "nM"}, {"measurement": "solubility", "setting": "[6]", "value": 1100, "unit": "µg/mL"}, {"measurement": "GI50", "setting": "MDA-MB-468", "value": 480, "unit": "nM"}]}
{"smiles": "Cc1cc(-c2cnn3c(NC[C@H]4C[C@](C)(O)C4)cc(Oc4cccnc4)nc23)ccc1C(=O)NC1CC1", "values": [{"measurement": "GI50", "setting": "OVCAR-3", "value": 100, "unit": "nM"}, {"measurement": "pKa", "setting": "[1]", "value": 3.7}, {"measurement": "AUC", "setting": "[2]", "value": 3900, "unit": "ng·h/mL"}, {"measurement": "solubility", "setting": "[4]", "value": 3.3, "unit": "µg/mL"}, {"measurement": "GI50", "setting": "HCT-116", "value": 40, "unit": "nM"}, {"measurement": "Cmax", "setting": "[5]", "value": 1800, "unit": "ng/mL"}, {"measurement": "solubility", "setting": "[6]", "value": 560, "unit": "µg/mL"}, {"measurement": "GI50", "setting": "MDA-MB-468", "value": 71, "unit": "nM"}]}
